Literature values as cited in US20210244731A1, “TABLET CONTAINING ANTITUMOR AGENT” (FUJIFILM Corporation, priority 2018, published 2021).

Molecular target: T1, FLT3 (Homo sapiens, UniProt P36888)
T1 sequence (P36888 27-993): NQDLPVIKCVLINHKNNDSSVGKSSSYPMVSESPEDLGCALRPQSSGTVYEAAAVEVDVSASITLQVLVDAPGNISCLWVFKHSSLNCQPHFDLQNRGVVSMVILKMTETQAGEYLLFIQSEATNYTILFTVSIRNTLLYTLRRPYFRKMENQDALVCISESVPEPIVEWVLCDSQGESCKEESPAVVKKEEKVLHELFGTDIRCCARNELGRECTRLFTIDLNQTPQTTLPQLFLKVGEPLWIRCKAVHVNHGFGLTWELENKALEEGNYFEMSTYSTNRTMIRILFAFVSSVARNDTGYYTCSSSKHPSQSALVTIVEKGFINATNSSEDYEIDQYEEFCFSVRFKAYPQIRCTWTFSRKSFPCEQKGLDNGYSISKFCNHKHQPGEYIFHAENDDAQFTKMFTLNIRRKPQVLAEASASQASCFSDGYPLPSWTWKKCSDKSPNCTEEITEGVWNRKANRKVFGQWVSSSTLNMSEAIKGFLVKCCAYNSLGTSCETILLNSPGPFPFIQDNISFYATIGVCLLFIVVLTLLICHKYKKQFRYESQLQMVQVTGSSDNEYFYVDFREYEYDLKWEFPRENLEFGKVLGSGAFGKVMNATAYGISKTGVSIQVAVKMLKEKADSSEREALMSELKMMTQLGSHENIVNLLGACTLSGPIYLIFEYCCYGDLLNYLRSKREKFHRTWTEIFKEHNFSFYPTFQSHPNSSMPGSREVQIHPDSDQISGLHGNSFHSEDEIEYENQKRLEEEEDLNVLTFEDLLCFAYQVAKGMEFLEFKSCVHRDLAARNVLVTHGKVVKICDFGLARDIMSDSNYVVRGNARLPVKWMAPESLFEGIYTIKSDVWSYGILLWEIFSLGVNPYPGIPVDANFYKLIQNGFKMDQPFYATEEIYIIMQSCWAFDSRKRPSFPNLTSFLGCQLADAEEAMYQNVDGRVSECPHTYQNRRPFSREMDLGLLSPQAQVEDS
Conditions: statement of background, WO2015/056683A

CCCNc1nc(Nc2ccc(C#N)cc2)ncc1C#CCCCNC(=O)[C@H](C)N(C)C(=O)/C=C/CN(C)C [Compound A, (S,E)-N-(1-((5-(2-((4-cyanophenyl)amino)-4-(propylamino)pyrimidin-5-yl)-4-pentyn-1-yl)amino)-1-oxopropan-2-yl)-4-(dimethylamino)-N-methyl-2-butenamide]
FLT3 inhibitory action: FLT3 inhibitory action
